Test results: US8901147B2, “Bi-heteroaryl compounds as Vps34 inhibitors” (Novartis AG, priority 2010, dated 2014)

biological target: recombinant human Vps34 (Homo sapiens, UniProt Q8NEB9); experiment: Vps34 KinaseGlo assay; type: biochemical; settings: KinaseGlo luminescence ATP detection; PI/OG substrate; 1 μM ATP; room temperature; 8 concentrations, n=2
Protocol: It was then resuspended in 3% OctylGlucoside by vortexing and stored at 4° C. 5 μL of a mix of PI/OG with recombinant human Vps34 were added. Kinase reactions were started by addition of 5 μl of ATP-mix containing in a final volume 10 μL 10 mM TRIS-HCl pH 7.5, 3 mM MgCl2, 50 mM NaCl, 0.05% CHAPS, 1 mM DTT and 1 μM ATP, and occurred at room temperature. Reactions were stopped with 10 μl of KinaseGlo and plates were read 10 minutes later in a Synergy2 reader using an integration time of 0.1 seconds per well.

Sequence of recombinant human Vps34 (Q8NEB9 whole entry): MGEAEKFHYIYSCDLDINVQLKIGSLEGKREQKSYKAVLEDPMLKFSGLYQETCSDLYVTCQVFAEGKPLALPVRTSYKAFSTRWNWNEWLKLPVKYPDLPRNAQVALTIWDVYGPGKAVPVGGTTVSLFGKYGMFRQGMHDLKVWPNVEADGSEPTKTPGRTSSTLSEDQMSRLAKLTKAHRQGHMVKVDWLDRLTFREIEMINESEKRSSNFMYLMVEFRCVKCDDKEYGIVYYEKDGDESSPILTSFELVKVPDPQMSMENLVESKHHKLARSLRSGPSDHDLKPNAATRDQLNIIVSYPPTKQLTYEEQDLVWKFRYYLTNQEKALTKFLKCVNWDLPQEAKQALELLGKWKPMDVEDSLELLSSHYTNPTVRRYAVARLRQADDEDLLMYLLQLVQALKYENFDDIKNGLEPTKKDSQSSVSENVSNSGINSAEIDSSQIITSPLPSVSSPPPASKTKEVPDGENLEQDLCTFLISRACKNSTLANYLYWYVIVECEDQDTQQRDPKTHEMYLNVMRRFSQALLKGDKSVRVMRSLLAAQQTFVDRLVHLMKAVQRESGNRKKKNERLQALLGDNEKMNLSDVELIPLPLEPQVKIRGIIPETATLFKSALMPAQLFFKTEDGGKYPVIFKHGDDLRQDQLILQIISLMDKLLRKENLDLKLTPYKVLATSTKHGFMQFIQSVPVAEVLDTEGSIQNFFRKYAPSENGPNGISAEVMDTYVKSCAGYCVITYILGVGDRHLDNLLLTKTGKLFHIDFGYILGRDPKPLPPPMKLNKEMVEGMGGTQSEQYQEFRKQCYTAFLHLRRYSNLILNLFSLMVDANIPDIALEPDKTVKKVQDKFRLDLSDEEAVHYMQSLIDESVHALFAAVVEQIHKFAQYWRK

Compound	IC50 [nM]
CC(C)(O)CNc1ncc(-c2ccnc(Nc3ccncc3)n2)c(C(F)(F)F)n1 [Example 24, 2-methyl-1-(2-(pyridin-4-ylamino)-4′-(trifluoromethyl)-4,5′-bipyrimidin-2′-ylamino)propan-2-ol]	96
CC(C)(O)CNc1ncc(-c2ccnc(Nc3ccc(C#N)cc3)n2)c(C(F)(F)F)n1 [Example 25, 4-(2′-(2-hydroxy-2-methylpropylamino)-4′-(trifluoromethyl)-4,5′-bipyrimidin-2-ylamino)benzonitrile]	117
CCc1nc(NCC(C)(C)O)ncc1-c1ccnc(Nc2ccc(C#N)cc2)n1 [Example 37a, 4-(4′-ethyl-2′-(2-hydroxy-2-methylpropylamino)-4,5′-bipyrimidin-2-ylamino)benzonitrile]	31
(S)-1-[4′-Cyclopropylmethyl-2-(pyridin-4-ylamino)-[4,5]bipyrimidinyl-2′-ylamino]-propan-2-ol [Example 10k]	276
